Literature values, collected in US20100152480A1 (priority 2008, published 2010).

Legend:
[1] = system: gram negative bacteria (Alcaligenes faecalis, Bordetella bronchiseptica, Citrobacter freundii, Citrobacter intermedium, Enterobacter aerogenes, Escherichia …); conditions: listed gram negative species; known from prior art
[2] = system: gram positive bacteria (Arthrobacter oxydans, Bacillus cereus var mycoide, Bacillus subtilis, Bacillus megaterium, Clostridium perfringens, Listeria …); conditions: listed gram positive species; known from prior art
[3] = system: moulds and yeast (Aspergillus niger, Aureobasidium pullulans, Cladosporium cladosporioides, Gliocadium virens, Chaetonium globosum, Penicillium chrysogenum …); conditions: listed moulds and yeasts; known from prior art
[4] = 20° C.

Substance: ethyl-Na-dodecanoyl-Larginate HCl [Ethyl lauroyl arginate]
- effectiveness against gram negative bacteria [1]: effective
- effectiveness against gram positive bacteria [2]: effective
- effectiveness against moulds and yeast [3]: effective
- solubility in water [4]: greater than 247 g/kg
